Experimental findings from patent publication US10774097B2, “Boron compounds as inhibitors of lipoxygenase and the lipoxygenase pathway, and preparation and use thereof” (UNIVERSITÄT LEIPZIG, priority 2015, dated 2020) are described below.

What is called solubility is the concentration that dissolves in the medium under given conditions.

For series [1], the system named is SW480. Description: Cytotoxicity MTT assay, SW480. The settings on record: MTT assay (top value). It is filed as cell-based. On the procedure: (§1) In order to determine the cytotoxicity towards various cancer cell lines, MTT and crystal violet (CV) assays were carried out. The MTT essay takes place as specified by T. Mosmann [T. Mosmann, J. Immunol. Methods, 1983, 65, 55], and the CV test takes place as specified by D. A. Flick et al. [D. A. Flick, G. E. Gifford, J. Immunol. Methods, 1984, 68, 167].
(§2) In these tests, the percentage of dead cells was analysed on the basis of the concentration of the inhibitors. The obtained IC50 value indicates the concentration of a particular inhibitor at which 50% of the analysed cells die off.
(§3) The proportion of living cells was determined by the MTT assay (3-(4,5-dimethylthiazolyl-2)-2,5-diphenyltetrazoliumbromide) and the crystal violet (CV) assay. In the MTT assay, the presence of NADH and NADPH is established. These two compounds are characteristic metabolism products in a functioning respiratory chain. NADH and NADPH reduce the MTT dye, thus leading to a change in colour, which can be measured and is thus directly proportional to the number of living cells.
(§4) Three skin cancer cell lines (A375, B16, B16F10) and three colon cancer cell lines (CT26CL25, HCT116, SW480) were analysed. Primary fibroblasts from human lung tissue (MRC-5) were used as an example of healthy cells and thus as a negative control.
(§5) The top value for each cell represents the IC50 value in the MTT assay, and the bottom value represents the IC50 value in the CV assay (crystal violet).
On the technique in general: Tetrazolium assays rely on reduction of a dye to a coloured formazan, in cell work by metabolically active cells.

The nature of series [2]: Solubility tests in ethanol and DMSO. It is filed as physicochemical. The following applies: solvent added until clear solution; for solubility: organic solvent or mixture, thermodynamic from solid. As to the method:
Solubility tests in ethanol and DMSO were carried out to determine the solubility. The amount of solvent required to obtain a clear solution was added to 4 mg of the compounds in an Eppendorf tube. The concentration of the solution was then determined on the basis of the mass of the compounds and the amount of solvent.

For series [3], the system named is HCT116. Description: Cytotoxicity crystal violet (CV) assay, HCT116. It is filed as cell-based. The settings on record: CV assay (bottom value). As to the method: as §1, §2
(§6) Meanwhile, in the crystal violet assay, the crystal violet dye can only diffuse through the perforated cell membranes of dead cells. In this case, the number of dyed cells represents the number of dead cells.
as §4, §5

Series [4] deals with A375. Description: Cytotoxicity crystal violet (CV) assay, A375. It is filed as cell-based. The settings on record: CV assay (bottom value). As to the method: as §1, §2, §6, §4, §5
Series [5] has as its system primary fibroblasts (MRC-5). In words: Cytotoxicity MTT assay, MRC-5. It is filed as cell-based, human. On the procedure: as §1, §2, §3, §4, §5
Series [6] deals with CT26CL25. In words: Cytotoxicity crystal violet (CV) assay, CT26CL25. It is filed as cell-based. The following applies: CV assay (bottom value). On the procedure: as §1, §2, §6, §4, §5
For series [7], the system named is B16. Description: Cytotoxicity crystal violet (CV) assay, B16. It is filed as cell-based. The settings on record: CV assay (bottom value). As to the method: as §1, §2, §6, §4, §5
For series [8], the system named is HCT116. Description: Cytotoxicity MTT assay, HCT116. The settings on record: MTT assay (top value). It is filed as cell-based. On the procedure:
as §1, §2, §3, §4, §5

Series [9] deals with CT26CL25. In words: Cytotoxicity MTT assay, CT26CL25. It is filed as cell-based. The following applies: MTT assay (top value). On the procedure:
as §1, §2, §3, §4, §5

Series [10] has as its system B16. In words: Cytotoxicity MTT assay, B16. The settings on record: MTT assay (top value). It is filed as cell-based. On the procedure: as §1, §2, §3, §4, §5
For series [11], the system named is SW480. In words: Cytotoxicity crystal violet (CV) assay, SW480. The following applies: CV assay (bottom value). It is filed as cell-based. As to the method: as §1, §2, §6, §4, §5
Series [12] has as its system A375. Description: Cytotoxicity MTT assay, A375. It is filed as cell-based. On the procedure:
as §1, §2, §3, §4, §5

The target of series [13] is T1, 5-LOX (Homo sapiens, UniProt P09917).
T1 construct: endogenous in cells; host or cells: intact polymorphonuclear leukocytes isolated from blood
T1 sequence (P09917 1-674): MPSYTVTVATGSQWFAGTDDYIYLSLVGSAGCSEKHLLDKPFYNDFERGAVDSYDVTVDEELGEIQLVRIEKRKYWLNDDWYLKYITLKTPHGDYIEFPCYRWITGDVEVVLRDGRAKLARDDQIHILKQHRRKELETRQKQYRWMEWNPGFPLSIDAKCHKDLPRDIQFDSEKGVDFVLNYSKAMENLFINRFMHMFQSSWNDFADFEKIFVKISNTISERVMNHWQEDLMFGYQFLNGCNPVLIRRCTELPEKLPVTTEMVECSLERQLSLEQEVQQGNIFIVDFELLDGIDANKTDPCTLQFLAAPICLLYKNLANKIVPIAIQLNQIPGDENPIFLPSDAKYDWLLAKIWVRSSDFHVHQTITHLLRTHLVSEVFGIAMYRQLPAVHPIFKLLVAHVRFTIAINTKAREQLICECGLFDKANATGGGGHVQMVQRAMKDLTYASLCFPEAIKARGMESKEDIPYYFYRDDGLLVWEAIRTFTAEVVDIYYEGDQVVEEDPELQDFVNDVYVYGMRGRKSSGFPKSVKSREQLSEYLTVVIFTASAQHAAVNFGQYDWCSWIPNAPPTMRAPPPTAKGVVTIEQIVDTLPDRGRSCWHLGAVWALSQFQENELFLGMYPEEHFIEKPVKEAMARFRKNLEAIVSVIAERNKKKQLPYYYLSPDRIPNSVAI
In words: Inhibition test: 5-LOX activity in intact polymorphonuclear leukocytes (arachidonic acid conversion, HPLC). It is filed as cell-based. The settings on record: 5-LOX-FLAP enzyme system, 15 min at 37° C., read-out: IC50 value (at concentration). On the procedure: The 5-LOX activity of the cells was established on the basis of the concentration of inhibitor.
In this process, intact polymorphonuclear leukocytes were isolated from blood as specified in the known literature [C. Greiner et al., British Journal of Pharmacology, 2011, 164, 781-793]. The cells were grown on cell sheets until a confluence of 95% was reached, i.e. 95% of the cell sheets was covered with cells. Each cell sheet was then treated with 10 μl of a solution of the inhibitor at concentrations of 0.05 μM, 0.1 μM, 0.5 μM, 1 μM, 5 μM, 10 μM, 50 μM and 100 μM at 37° C. for 15 minutes. Each cell sheet was then treated with an arachidonic acid solution for 10 minutes. 10 μl of a 1:1 mixture of 2 mM of arachidonic acid and 250 μM of A23187 Ca^2+-ionophore solution in ethanol was used for this.
Conversion of a small amount of arachidonic acid is evidence of a strong inhibiting effect.

Series [14] relates to various cancer cell lines. In words: Cytotoxicity tests on cancer cell lines (summary in words). The settings on record: comparison with phenyl-based compounds. As to the method: as §1, §2, §4
Where [15] appears, read: MTT assay (top value), read-out: IC50 A375.

Converted amounts (≈) assume the structure as drawn. Where two headings read alike, the source gives them in different places. Some results are limits rather than exact numbers.

As for “1-(7-Thiomethylquinolin-2-yl-1,7-dicarba-closo-dodecaboran(12)yl)-hexan-1-ol [Embodiment 5]”, the IC50 in [1] was 33.1 µM; in series [3] it was over 50 µM; in [4] it was 30.5 µM; in series [5] (read-out: IC50 value for healthy cells (MRC-5)), 82 µM; in series [6], 50 µM; in series [7], over 50 µM. The IC50 in series [8] is 45 µM; in series [9], 46 µM; in series [10], 50 µM; in [11] it was over 50 µM; in [12] (read-out: IC50 value for A375 cancer cells) it was 8 µM; in [13] it was 2.5 µM. The “Solubility in DMSO” value in series [2] (DMSO) amounted to 953.9 mM. For the same compound, in [2] (ethanol), the “Solubility in EtOH” value was determined as 238.5 mM. Moreover, the “selectiveness between healthy cells and cancer cells” value in series [5] (IC50 for healthy cells (MRC-5) divided by IC50 for cancer cells (A375)) worked out at 10.2.
For “1-((7-Quinolin-2-ylmethoxy)-1,7-dicarba-closo-dodecaboran(12)yl)-hexan-1-ol [Embodiment 3]”, in [14], the “cytotoxicity towards cancer cell lines (in words)” value is “considerably higher cytotoxicity”. In [2] (DMSO), the “Solubility in DMSO” value was found to be 208.3 mM. Besides, in series [2] (ethanol), the “Solubility in EtOH” value was 86.8 mM. Further, the IC50 in series [13] stood at 1.4 µM.
In the case of “1-(Quinolin-2-ylmethoxy)-1,7-dicarba-closo-dodecaborane(12) [Comparative Example 1]”, the “cytotoxicity towards cancer cell lines (in words)” value in [14] is “insufficient cytotoxicity”. In addition, the IC50 in [1] was over 50 µM; in series [4], over 50 µM; in series [6], over 50 µM; in [7], 47.6 µM; in series [8] it was over 50 µM; in [9], over 50 µM. In addition, the IC50 in series [10] is 47.4 µM; in series [11], over 50 µM; in series [12] (setting [15]), 50 µM; in series [13], 2.3 µM. Further, the “Solubility in DMSO” value in series [2] (DMSO) came to 432 mM. The “Solubility in EtOH” value in series [2] (ethanol) is 72 mM.
“1-(Quinolin-2-ylmethyl)thio-1,7-dicarba-closo-dodecaborane(12) [Comparative Example 2]”: the “cytotoxicity towards cancer cell lines (in words)” value in [14] was “insufficient cytotoxicity”. Further, the “Solubility in DMSO” value in series [2] (DMSO) came out at 600 mM. Moreover, in [2] (ethanol), the “Solubility in EtOH” value was 67 mM. In addition, the IC50 in series [3] was over 50 µM; in [4], 34.8 µM; in series [6] it was over 50 µM; in [7], over 50 µM; in series [8], over 50 µM; in series [9], over 50 µM. Further, the IC50 in series [10] was over 50 µM; in [11] it was over 50 µM; in series [12] (setting [15]), 30 µM; in series [13], 5.8 µM.
As to “1-Quinolin-2-ylmethoxy-1,12-dicarba-closo-dodecaborane(12) [Comparative Example 3]”, the IC50 in [1] is 29 µM; in series [3], over 50 µM; in [4], 26.9 µM; in series [5] (single value in cell, unit inferred, top value = MTT assay, read-out: IC50 MRC-5) it was over 100 µM; in series [6], 50 µM; in series [7], 46 µM. The IC50 in series [9] is 35 µM; in [10], 45.7 µM; in series [12] (setting [15]), 8.8 µM; in [13] it was 1.4 µM. Further, the “Solubility in DMSO” value in series [2] (DMSO) was found to be 208.3 mM. In addition, the “Solubility in EtOH” value in series [2] (ethanol) worked out at 86.8 mM.
With `CCCCCC(O)c1cccc(OCc2ccc3ccccc3n2)c1` (stereo not drawn) [Rev-5901, reference compound], the IC50 is 50 µM in series [1] (Homo sapiens, SW480); 50 µM in series [3] (Homo sapiens, HCT-116); 46.5 µM in series [4] (Homo sapiens, A-375); 70.1 µM in [5] (Homo sapiens, MRC5, MTT assay (top value), healthy cells, read-out: IC50 MRC-5); 70 µM in series [5] (Homo sapiens, MRC5, read-out: IC50 value for healthy cells (MRC-5)); over 50 µM in series [6]. The IC50 in [7] (Mus musculus, B16) is 45 µM; in series [8] (Homo sapiens, HCT-116), 50 µM; in series [9] it was 28.1 µM; in [10] (Mus musculus, B16), 27.6 µM; in series [11] (Homo sapiens, SW480) it was over 50 µM; in series [12] (Homo sapiens, A-375, MTT assay (top value), read-out: IC50 A375), 25 µM. For the same compound, the IC50 in series [12] (Homo sapiens, A-375, depending on the method of analysis used (MTT/CV), read-out: IC50 values towards melanoma cancer cell line A375) lay in the range of 25 to 50 µM. In addition, the solubility came to 29.8 mM (≈ 10000 µg/mL) in [2] (DMSO, read-out: Solubility in DMSO) and 29.7 mM (≈ 9960 µg/mL) in [2] (ethanol, read-out: Solubility in EtOH).
